Laboratory results as given in patent US6521751B1, “Recombinant nucleic acid sequences and methods for determining both genotoxicity and mutagenicity of a sample and the kinetics of the genotoxicity” (Vlaamse Instelling voor Technologisch Onderzoek (VITO), priority 1998, dated 2003).
“And” between values parts separate entries of the source, which are not always exact repeats. Equal values may be shown once. Read-outs that look alike come from different tables or passages of the source.

What was measured:
[1] = system: TA98 and TA104 containing pMOL1067; assay: Induction kinetics with pMOL1067; type: cell-based, S. typhimurium
Experimental: The reaction of the different constructs when more than one genotoxic product is present in the test sample. was examined. This is an important aspect, since environmental samples often contain more than one genotoxic pollutant. Also in this regard many pharmaceutical products that have to be tested for genotoxicity can be a combination of different active genotoxic substances (e.g. anticancer or anti AIDS drugs). The experiments were performed with TA98 and TA104 containing either pMOL1067 or pMOL890. These two constructs were chosen since they show similar induction kinetics and the best signal/noise ratio's in S. typhimurium (see FIG. 7 and FIG. 8). As test products, several combinations of MMS and novobiocine were taken. These products were used since they were found by us to have different induction kinetics (e.g., with pMOL1067 MMS gives a maximum after 2 hours, while the maximal signal/noise ratio with novobiocine is observed after 4 hours).

[2] = system: S. typhimurium TA98
[3] = system: S. typhimurium TA100
[4] = system: S. typhimurium TA104
[5] = system: S. typhimurium TA1535
[6] = system: S. typhimurium TA1538
[7] = system: S. typhimurium TA98* containing pMOL890
[8] = system: S. typhimurium TA100* containing pMOL890
[9] = system: S. typhimurium TA104* containing pMOL890
[10] = system: S. typhimurium TA1535* containing pMOL890
[11] = system: S. typhimurium TA1538* containing pMOL890
[12] = system: S. typhimurium TA104 containing pMOL1066; conditions: TA104 pMOL1066
[13] = system: S. typhimurium TA104 containing pMOL1067; conditions: TA104 pMOL1067
[14] = system: S. typhimurium TA104 containing pMOL1068; conditions: TA104 pMOL1068
[15] = system: S. typhimurium TA104 containing pMOL1069; conditions: TA104 pMOL1069
[16] = system: S. typhimurium TA98 containing pMOL1067; conditions: TA98 pMOL1067
[17] = system: S. typhimurium TA98 containing pMOL1068; conditions: TA98 pMOL1068
[18] = system: S. typhimurium TA98 containing pMOL890; conditions: TA98 pMOL890
[19] = system: S. typhimurium TA104 containing pMOL890; conditions: TA104 pMOL890
[20] = system: TA 98 and TA104 strains containing pMOL1067 or pMOL1068; conditions: TA 98 and TA104 strains containing pMOL1067 or pMOL1068
[21] = system: E. coli (sfiA-lacZ); conditions: SOS chromotest, cited from earlier work
[22] = system: S. typhimurium; conditions: cited from earlier work

COS(C)(=O)=O [MMS, Methylmethanesulphonate]
time of maximal signal/noise ratio [1]: 2 h | Conclusion (Ames test) [2]: − | Number of His^+ revertants ([3]; MMS 0.1 μl): 344 and 392 | Number of His^+ revertants ([3]; MMS 0.2 μl): 604 and 560 | Number of His^+ revertants ([3]; MMS 1 μl): 1120 and 1282 | Conclusion (Ames test) [4]: + | Number of His^+ revertants ([5]; MMS 0.1 μl): 27 and 18 | Number of His^+ revertants ([5]; MMS 0.2 μl): 23 and 24 | Number of His^+ revertants ([5]; MMS 1 μl): 27 and 38 | Conclusion (Ames test) [6]: − | Number of His^+ revertants ([7]; MMS 0.1 μl): 25 and 27 | Number of His^+ revertants ([7]; MMS 0.2 μl): 26 and 28 | Number of His^+ revertants ([7]; MMS 1 μl): 22 and 27 | Number of His^+ revertants ([8]; MMS 0.1 μl): 160 and 152 | Number of His^+ revertants ([8]; MMS 0.2 μl): 242 and 314 | Number of His^+ revertants ([8]; MMS 1 μl): 536 and 528 | Number of His^+ revertants ([9]; MMS 0.1 μl): 224 and 218 | Number of His^+ revertants ([9]; MMS 0.2 μl): 428 and 325 | Number of His^+ revertants ([9]; MMS 1 μl): 672 and 724 | Number of His^+ revertants ([10]; MMS 0.1 μl): 32 | Number of His^+ revertants ([10]; MMS 0.2 μl): 24 | Number of His^+ revertants ([10]; MMS 1 μl): 29 and 26 | Number of His^+ revertants ([11]; MMS 0.1 μl): 36 and 28 | Number of His^+ revertants ([11]; MMS 0.2 μl): 28 and 27 | Number of His^+ revertants ([11]; MMS 1 μl): 27 and 29 | MINIMAL DETECTED CONCENTRATION (MDC) [12]: 7.3 nmol/assay | MINIMAL DETECTED CONCENTRATION (MDC) [13]: 7.3 nmol/assay | MINIMAL DETECTED CONCENTRATION (MDC) [14]: 7.3 nmol/assay | MINIMAL DETECTED CONCENTRATION (MDC) [15]: 7.3 nmol/assay | MINIMAL DETECTED CONCENTRATION (MDC) [16]: 7.3 nmol/assay | MINIMAL DETECTED CONCENTRATION (MDC) [17]: 7.3 nmol/assay | MINIMAL DETECTED CONCENTRATION (MDC) [18]: 7.3 nmol/assay | MINIMAL DETECTED CONCENTRATION (MDC) [19]: 7.3 nmol/assay | OUTCOME (genotoxicity, final outcome) [20]: pos | SOS (result) ([21]; Table 3): pos | MINIMAL DETECTED CONCENTRATION (MDC) ([21]; literature values): 20 nmol/assay | AMES (result) [22]: pos | MINIMAL DETECTED CONCENTRATION (MDC) [22]: 60 nmol/assay
